The values below come from ChEMBL document CHEMBL5120857, “Rational design, synthesis and biological evaluation of dual PARP-1/2 and TNKS1/2 inhibitors for cancer therapy” (Eur J Med Chem, 2022).

pIC50: −log10 of the molar value. Active and inactive are the calls of the source. No cut-off for these calls is given here.

For series [1], the system named is HCT-116. Briefly: Induction of apoptosis in human HCT-116 cells assessed as early apoptotic cells at 1 uM incubated for 3 days by annexinV-FITC/propidium iodide staining based flow cytometry (reference value: 7.67 %). It counts as functional. Particulars: time 3 day.
Series [2] concerns the target Poly [ADP-ribose] polymerase 2 (Homo sapiens, UniProt Q9UGN5). Briefly: Inhibition of PAPR-2 (unknown origin).
Series [3] has as its system HCT-116. Briefly: Induction of cell cycle arrest in human HCT-116 cells assessed as G0/G1 phase cells at 5 uM incubated for 3 days by propidium iodide staining based flow cytometry (reference value: 68.35 %). The format is functional. Particulars: time 3 day. (In general: A flow cytometer gives signals particle by particle.)
For a further series, the system named is MDA-MB-231. Briefly: Antiproliferative activity against human MDA-MB-231 cells assessed as inhibition of cell growth incubated for 7 days by MTT assay. The conditions noted are these: MDA-MB-231, 168 h. It counts as functional, cell-based. For orientation: Tetrazolium assays rely on reduction of a dye to a coloured formazan, in cell work by metabolically active cells.

A short description of series [4]: Toxicity in […] assessed as effect on body weight at 500 mg/kg, ip administered as single dose and measured on day 2 (reference value: 23.25 +/- 2.22 g). The format is organism-based. The conditions noted are these: in vivo.
The target in series [5] is T1, Protein mono-ADP-ribosyltransferase PARP10 (Homo sapiens, UniProt Q53GL7).
T1 sequence (Q53GL7 whole entry): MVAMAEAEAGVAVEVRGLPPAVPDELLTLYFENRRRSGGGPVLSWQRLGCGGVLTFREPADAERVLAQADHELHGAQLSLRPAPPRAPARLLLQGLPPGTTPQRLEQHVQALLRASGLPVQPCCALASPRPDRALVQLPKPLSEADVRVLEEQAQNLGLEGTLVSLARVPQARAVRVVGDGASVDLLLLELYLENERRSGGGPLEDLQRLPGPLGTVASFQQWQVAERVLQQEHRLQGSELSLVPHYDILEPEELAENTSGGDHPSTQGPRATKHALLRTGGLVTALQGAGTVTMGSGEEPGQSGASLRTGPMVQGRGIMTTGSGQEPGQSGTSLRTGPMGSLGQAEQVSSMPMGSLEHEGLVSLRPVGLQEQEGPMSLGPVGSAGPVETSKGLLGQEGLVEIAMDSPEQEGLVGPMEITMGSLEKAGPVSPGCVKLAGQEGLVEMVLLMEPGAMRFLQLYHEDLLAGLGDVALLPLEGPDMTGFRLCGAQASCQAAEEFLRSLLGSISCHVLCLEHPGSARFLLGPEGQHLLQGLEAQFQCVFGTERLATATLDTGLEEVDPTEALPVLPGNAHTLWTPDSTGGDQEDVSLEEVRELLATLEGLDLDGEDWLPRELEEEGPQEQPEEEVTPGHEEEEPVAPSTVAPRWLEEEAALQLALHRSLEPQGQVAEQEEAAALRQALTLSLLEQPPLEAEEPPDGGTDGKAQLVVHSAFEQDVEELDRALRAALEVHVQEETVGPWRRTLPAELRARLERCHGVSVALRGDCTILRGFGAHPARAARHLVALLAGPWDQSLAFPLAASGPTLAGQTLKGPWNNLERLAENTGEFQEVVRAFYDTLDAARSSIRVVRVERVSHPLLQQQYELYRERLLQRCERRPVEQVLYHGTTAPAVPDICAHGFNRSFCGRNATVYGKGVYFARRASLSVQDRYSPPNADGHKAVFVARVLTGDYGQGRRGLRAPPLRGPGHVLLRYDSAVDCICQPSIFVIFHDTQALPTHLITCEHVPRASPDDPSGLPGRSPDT
Description: Inhibition of PARP-10 (unknown origin).

Series [6] relates to HCT-116. Description: Induction of apoptosis in human HCT-116 cells assessed as viable cells at 5 uM incubated for 3 days by annexinV-FITC/propidium iodide staining based flow cytometry (reference value: 60.0 %). It counts as functional. The conditions noted are these: Homo sapiens, HCT-116, 72 h, time 3 day, read-out: Activity.
The nature of series [7]: Toxicity in […] assessed as morphological changes in ileum at 500 mg/kg, ip by H&E staining based histopathological analysis. The format is organism-based. The conditions noted are these: in vivo.
Series [8] addresses Protein mono-ADP-ribosyltransferase PARP14 (Homo sapiens, UniProt Q460N5). Description: Inhibition of PARP-14 (unknown origin).
Series [9] relates to HCT-116. Briefly: Induction of cell cycle arrest in human HCT-116 cells assessed as S phase cells at 1 uM incubated for 3 days by propidium iodide staining based flow cytometry (reference value: 11.26 %). The conditions noted are these: time 3 day. It counts as functional.
Series [10] concerns HCT-116. Briefly: Inhibition of homologous recombinant repair in human HCT-116 cells assessed as reduction in RAD51 foci formation at 1 uM incubated for 72 hrs by DAPI staining based immunofluorescence analysis. The format is functional, cell-based.
A short description of series [11]: Toxicity in BALB/c nude mouse xenografted with human HCT116 cells assessed as side effects at 25 to 100 mg/kg, ip administered once daily for 28 days. The format is organism-based, HCT-116. The conditions noted are these: in vivo, 672 h, dose 25-100 mg/kg, time 28 day.
For series [12], the system named is HCT-116. Briefly: Induction of apoptosis in human HCT-116 cells assessed as necrotic cells at 5 uM incubated for 3 days by annexinV-FITC/propidium iodide staining based flow cytometry (reference value: 3.65 %). It counts as functional. Particulars: time 3 day.
Series [13] deals with HCT-116. Description: Antitumor activity against human HCT-116 cells xenografted in BALB/c nude mouse assessed as tumor growth inhibition at 25 mg/kg, ip administered once daily for 28 days. The format is functional. Particulars: HCT-116, 672 h, time 28 day, read-out: TGI.
In series [14] the target is Poly [ADP-ribose] polymerase 1 (Homo sapiens, UniProt P09874). Particulars: dose 10.0 nM, time 45.0 min.
Poly [ADP-ribose] polymerase 1, sequence (P09874 whole entry): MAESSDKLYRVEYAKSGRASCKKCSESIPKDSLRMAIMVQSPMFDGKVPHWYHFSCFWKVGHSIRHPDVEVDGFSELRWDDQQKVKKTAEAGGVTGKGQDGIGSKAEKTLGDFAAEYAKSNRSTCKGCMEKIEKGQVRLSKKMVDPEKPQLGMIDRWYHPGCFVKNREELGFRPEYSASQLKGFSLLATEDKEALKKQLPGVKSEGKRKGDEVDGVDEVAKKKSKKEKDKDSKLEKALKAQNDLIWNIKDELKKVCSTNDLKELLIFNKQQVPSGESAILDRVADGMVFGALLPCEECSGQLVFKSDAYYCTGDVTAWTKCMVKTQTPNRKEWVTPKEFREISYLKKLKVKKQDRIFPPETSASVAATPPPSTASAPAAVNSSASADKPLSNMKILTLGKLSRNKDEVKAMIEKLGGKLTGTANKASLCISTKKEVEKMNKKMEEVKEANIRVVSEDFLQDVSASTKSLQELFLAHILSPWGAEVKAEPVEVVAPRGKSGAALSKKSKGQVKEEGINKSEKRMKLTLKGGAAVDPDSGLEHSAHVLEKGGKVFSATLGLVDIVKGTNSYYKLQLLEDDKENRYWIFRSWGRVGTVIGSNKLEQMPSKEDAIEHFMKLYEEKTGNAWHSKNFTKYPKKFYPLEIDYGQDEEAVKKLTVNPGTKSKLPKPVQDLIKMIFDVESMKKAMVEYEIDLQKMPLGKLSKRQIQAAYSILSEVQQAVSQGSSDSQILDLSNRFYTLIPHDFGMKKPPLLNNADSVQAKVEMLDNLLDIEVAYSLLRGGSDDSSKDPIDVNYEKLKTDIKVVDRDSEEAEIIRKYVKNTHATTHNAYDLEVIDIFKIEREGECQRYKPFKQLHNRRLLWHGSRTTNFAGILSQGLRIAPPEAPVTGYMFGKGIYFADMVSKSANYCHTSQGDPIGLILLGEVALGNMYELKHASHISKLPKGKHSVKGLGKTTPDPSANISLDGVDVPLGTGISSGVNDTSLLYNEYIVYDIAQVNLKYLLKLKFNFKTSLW
The subject of series [15] is HCT-116. Description: Antitumor activity against human HCT-116 cells xenografted in BALB/c nude mouse assessed as tumor growth inhibition at 100 mg/kg, ip administered once daily for 28 days. It counts as functional. The conditions noted are these: HCT-116, 672 h, time 28 day, read-out: TGI.
Series [16] is described as follows: Toxicity in […] assessed as morphological changes in jejunum at 500 mg/kg, ip by H&E staining based histopathological analysis. The conditions noted are these: in vivo. The format is organism-based.
Series [17] has as its system HCT-116. Description: Inhibition of Wnt/beta-Catenin signaling in human HCT-116 cells assessed as decrease in total beta-catenin levels at 10 uM by Western blot analysis. It counts as cell-based. A general note: In western blotting, separated proteins are transferred to a membrane and probed.
Series [18] is described as follows: Clearance in Sprague-Dawley rat at 10 mg/kg, po or 1 mg/kg, iv. The format is ADME, organism-based. Particulars: in vivo.
Series [19] relates to HCT-116. Description: Induction of apoptosis in human HCT-116 cells assessed as late apoptotic cells at 5 uM incubated for 3 days by annexinV-FITC/propidium iodide staining based flow cytometry (reference value: 8.71 %). Particulars: time 3 day. It counts as functional.
The test system of series [20] is HCT-116. Briefly: Inhibition of Wnt/beta-Catenin signaling in human HCT-116 cells assessed as increase in axin2 levels at 10 uM by Western blot analysis. The format is cell-based.
The test system of series [21] is HCT-116. Description: Inhibition of PARP in human HCT-116 cells assessed as decrease in pADPr levels at 10 uM by Western blot analysis. The format is cell-based.
In series [22] the test system is HCT-116. Briefly: Induction of cell cycle arrest in human HCT-116 cells assessed as G0/G1 phase cells at 1 uM incubated for 3 days by propidium iodide staining based flow cytometry (reference value: 68.35 %). It counts as functional. The conditions noted are these: time 3 day.

Poly [ADP-ribose] polymerase 2, sequence (Q9UGN5 whole entry): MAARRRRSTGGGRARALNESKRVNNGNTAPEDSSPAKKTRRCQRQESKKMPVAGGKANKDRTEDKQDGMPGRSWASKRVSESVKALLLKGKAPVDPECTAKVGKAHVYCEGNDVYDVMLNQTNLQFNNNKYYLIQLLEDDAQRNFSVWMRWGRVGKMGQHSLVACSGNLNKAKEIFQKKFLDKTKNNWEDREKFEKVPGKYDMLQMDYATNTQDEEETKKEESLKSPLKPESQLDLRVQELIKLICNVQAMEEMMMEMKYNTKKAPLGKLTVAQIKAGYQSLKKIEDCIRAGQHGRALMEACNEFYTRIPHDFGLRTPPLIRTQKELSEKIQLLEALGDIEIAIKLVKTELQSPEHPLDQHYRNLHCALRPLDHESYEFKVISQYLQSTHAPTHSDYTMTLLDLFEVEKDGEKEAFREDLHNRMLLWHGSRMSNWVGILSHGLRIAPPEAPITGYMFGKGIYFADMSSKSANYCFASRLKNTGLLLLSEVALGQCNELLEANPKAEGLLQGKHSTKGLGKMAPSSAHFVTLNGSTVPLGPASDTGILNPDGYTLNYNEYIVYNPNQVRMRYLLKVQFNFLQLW
Protein mono-ADP-ribosyltransferase PARP14, sequence (Q460N5 whole entry): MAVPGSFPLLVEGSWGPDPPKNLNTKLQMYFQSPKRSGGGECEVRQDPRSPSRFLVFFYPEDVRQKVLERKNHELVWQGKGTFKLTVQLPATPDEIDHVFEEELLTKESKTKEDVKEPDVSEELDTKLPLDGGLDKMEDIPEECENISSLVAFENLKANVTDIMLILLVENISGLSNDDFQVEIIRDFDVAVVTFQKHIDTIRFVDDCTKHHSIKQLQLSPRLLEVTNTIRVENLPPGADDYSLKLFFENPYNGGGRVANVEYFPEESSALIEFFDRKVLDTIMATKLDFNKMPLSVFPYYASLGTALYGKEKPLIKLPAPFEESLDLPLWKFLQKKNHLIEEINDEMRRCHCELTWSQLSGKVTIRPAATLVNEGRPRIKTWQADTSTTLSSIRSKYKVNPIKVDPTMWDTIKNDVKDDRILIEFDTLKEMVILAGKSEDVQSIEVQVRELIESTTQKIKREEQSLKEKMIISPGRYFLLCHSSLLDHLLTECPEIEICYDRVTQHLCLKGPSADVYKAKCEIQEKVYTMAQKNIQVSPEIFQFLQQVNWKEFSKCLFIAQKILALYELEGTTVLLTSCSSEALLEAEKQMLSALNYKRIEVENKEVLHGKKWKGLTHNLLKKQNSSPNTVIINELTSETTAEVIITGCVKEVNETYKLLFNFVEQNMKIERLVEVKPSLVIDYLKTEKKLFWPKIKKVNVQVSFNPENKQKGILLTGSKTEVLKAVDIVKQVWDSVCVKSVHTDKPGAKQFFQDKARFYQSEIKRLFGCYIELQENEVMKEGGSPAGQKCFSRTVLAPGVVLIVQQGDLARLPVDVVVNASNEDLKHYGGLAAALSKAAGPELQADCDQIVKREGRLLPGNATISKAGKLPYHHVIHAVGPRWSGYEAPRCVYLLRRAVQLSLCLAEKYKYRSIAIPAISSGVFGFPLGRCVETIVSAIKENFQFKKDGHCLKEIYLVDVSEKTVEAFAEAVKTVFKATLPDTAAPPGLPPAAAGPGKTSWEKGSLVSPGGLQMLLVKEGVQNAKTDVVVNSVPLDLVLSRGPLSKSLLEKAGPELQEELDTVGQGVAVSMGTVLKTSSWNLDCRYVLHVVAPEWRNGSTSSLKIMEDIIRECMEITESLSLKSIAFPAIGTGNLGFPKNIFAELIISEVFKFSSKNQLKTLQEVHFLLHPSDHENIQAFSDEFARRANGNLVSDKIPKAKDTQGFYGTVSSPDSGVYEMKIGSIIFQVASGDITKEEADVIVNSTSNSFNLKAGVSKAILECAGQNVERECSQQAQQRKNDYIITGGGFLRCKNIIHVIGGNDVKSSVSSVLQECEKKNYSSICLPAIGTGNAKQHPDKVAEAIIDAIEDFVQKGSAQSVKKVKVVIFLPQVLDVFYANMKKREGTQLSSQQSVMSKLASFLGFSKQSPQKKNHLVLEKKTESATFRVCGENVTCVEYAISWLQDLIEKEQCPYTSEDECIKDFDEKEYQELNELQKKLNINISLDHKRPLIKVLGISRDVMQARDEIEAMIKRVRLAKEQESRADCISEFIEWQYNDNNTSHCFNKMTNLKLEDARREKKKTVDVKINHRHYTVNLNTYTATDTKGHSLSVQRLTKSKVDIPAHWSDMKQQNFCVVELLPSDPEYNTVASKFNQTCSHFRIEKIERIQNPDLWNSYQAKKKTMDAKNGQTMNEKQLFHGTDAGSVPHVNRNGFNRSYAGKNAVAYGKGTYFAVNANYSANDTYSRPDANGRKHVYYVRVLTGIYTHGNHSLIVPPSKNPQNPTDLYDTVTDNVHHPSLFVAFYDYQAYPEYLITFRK

Broadly, the pIC50 is the IC50 on a negative log10 scale, so that one unit is a factor of ten. In general, inhibition refers to the share of the control response that was lost under treatment. With `COc1ccc(NC(=O)c2ccc(NC(=O)N3CCN(C(=O)c4cc(Cc5n[nH]c(=O)c6ccccc56)ccc4F)CC3)cc2)cc1`, the Activity is listed as 6.86% with HCT-116 [1]; 41.21% in the series with HCT-116 [3]; 20.75 g in series [4]; “Non-Toxic” in series [7]; 9.31% in the series with HCT-116 [9]; “Non-Toxic” in series [11]. Besides, the Activity with HCT-116 [12] is 8.56%; in series [16] it was “Non-Toxic”; with HCT-116 [19] it was 39.5%; in the series on HCT-116 [22] it was 59.2%. Besides, the pIC50 is 8.92 in series [2], 6.06 in the series on MDA-MB-231, 6.85 in [5] and 5.86 in series [8]. In addition, in the series on HCT-116 [6], the viability at 5 µM is 45.1%. For the same compound, the inhibition entry with HCT-116 [10], in the series on HCT-116 [17], with HCT-116 [20] and in the series on HCT-116 [21] was “Active” in each case. The inhibition in vivo at 25 mg/kg in the series with HCT-116 [13] amounted to 31.7%. This compound gave an inhibition in [14] of 97%. Besides, the inhibition in vivo at 100 mg/kg with HCT-116 [15] came out at 51.7%. In addition, in series [18], the CL came out at 90.67 mL/min/kg.
